# Results reported in ChEMBL document CHEMBL5649169 (ChemMedChem, 2018).
# Key:
# [1] = molecular target: Uncharacterized aarF domain-containing protein kinase 5 (Homo sapiens) (UniProt Q3MIX3)
# [2] = molecular target: c-Myc-binding protein (Homo sapiens) (UniProt Q99417)
# [3] = molecular target: Transmembrane protein 94 (Homo sapiens) (UniProt Q12767)
# [4] = molecular target: Cleavage and polyadenylation specificity factor subunit 1 (Homo sapiens) (UniProt Q10570)
# [5] = molecular target: Peroxisomal biogenesis factor 3 (Homo sapiens) (UniProt P56589)
# [6] = molecular target: Origin recognition complex subunit 3 (Homo sapiens) (UniProt Q9UBD5)
# [7] = molecular target: STE20-related kinase adapter protein alpha (Homo sapiens) (UniProt Q7RTN6)
# [8] = molecular target: Large ribosomal subunit protein bL9m (Homo sapiens) (UniProt Q9BYD2)
# [9] = molecular target: Y-box-binding protein 3 (Homo sapiens) (UniProt P16989)
# [10] = molecular target: Large ribosomal subunit protein eL19 (Homo sapiens) (UniProt P84098)
# [11] = molecular target: Putative uncharacterized protein ZNF436-AS1 (Homo sapiens) (UniProt Q8NC38)
# [12] = molecular target: Dolichyl-diphosphooligosaccharide--protein glycosyltransferase 48 kDa subunit (Homo sapiens) (UniProt P39656)
# [13] = molecular target: Activated RNA polymerase II transcriptional coactivator p15 (Homo sapiens) (UniProt P53999)
# [14] = molecular target: Pumilio homolog 2 (Homo sapiens) (UniProt Q8TB72)
# [15] = molecular target: Protein CIP2A (Homo sapiens) (UniProt Q8TCG1)
# [16] = molecular target: Probable helicase with zinc finger domain (Homo sapiens) (UniProt P42694)
# [17] = molecular target: Small ribosomal subunit protein uS2 (Homo sapiens) (UniProt P08865)
# [18] = molecular target: Calcium-binding and coiled-coil domain-containing protein 2 (Homo sapiens) (UniProt Q13137)
# [19] = molecular target: Dolichyl-diphosphooligosaccharide--protein glycosyltransferase subunit STT3B (Homo sapiens) (UniProt Q8TCJ2)
# [20] = molecular target: Nuclear factor NF-kappa-B p105 subunit (Homo sapiens) (UniProt P19838)
# [21] = molecular target: Lanosterol synthase (Homo sapiens) (UniProt P48449)
# [22] = molecular target: Macoilin (Homo sapiens) (UniProt Q8N5G2)
# [23] = molecular target: Microfibrillar-associated protein 1 (Homo sapiens) (UniProt P55081)
# [24] = molecular target: CCAAT/enhancer-binding protein zeta (Homo sapiens) (UniProt Q03701)
# [25] = molecular target: Nuclear cap-binding protein subunit 2 (Homo sapiens) (UniProt P52298)
# [26] = molecular target: BAG family molecular chaperone regulator 2 (Homo sapiens) (UniProt O95816)
# [27] = molecular target: Presenilin-associated rhomboid-like protein, mitochondrial (Homo sapiens) (UniProt Q9H300)
# [28] = molecular target: Putative protein-lysine deacylase ABHD14B (Homo sapiens) (UniProt Q96IU4)
# [29] = molecular target: Serine/arginine-rich splicing factor 9 (Homo sapiens) (UniProt Q13242)
# [30] = molecular target: Malate dehydrogenase, cytoplasmic (Homo sapiens) (UniProt P40925)
# [31] = molecular target: Parathymosin (Homo sapiens) (UniProt P20962)
# [32] = molecular target: WASH complex subunit 4 (Homo sapiens) (UniProt Q2M389)
# [33] = molecular target: Splicing factor 3B subunit 2 (Homo sapiens) (UniProt Q13435)
# [34] = molecular target: OCIA domain-containing protein 1 (Homo sapiens) (UniProt Q9NX40)
# [35] = molecular target: Dolichyl-diphosphooligosaccharide--protein glycosyltransferase subunit MAGT1 (Homo sapiens) (UniProt Q9H0U3)
# [36] = molecular target: Phosphopentomutase (Homo sapiens) (UniProt Q96G03)
# [37] = molecular target: La-related protein 1 (Homo sapiens) (UniProt Q6PKG0)
# [38] = molecular target: 14-3-3 protein beta/alpha (Homo sapiens) (UniProt P31946)
# [39] = molecular target: Serine/arginine-rich splicing factor 2 (Homo sapiens) (UniProt Q01130)
# [40] = species on record: Homo sapiens
# [41] = molecular target: Eukaryotic translation initiation factor 3 subunit D (Homo sapiens) (UniProt O15371)
# [42] = molecular target: C-1-tetrahydrofolate synthase, cytoplasmic (Homo sapiens) (UniProt P11586)
# [43] = molecular target: Vacuole membrane protein 1 (Homo sapiens) (UniProt Q96GC9)
# [44] = molecular target: DNA mismatch repair protein Msh6 (Homo sapiens) (UniProt P52701)
# [45] = molecular target: Proteasome subunit alpha type-3 (Homo sapiens) (UniProt P25788)
# [46] = molecular target: Trifunctional purine biosynthetic protein adenosine-3 (Homo sapiens) (UniProt P22102)
# Also: assay method not described here.
# Chain of Pumilio homolog 2 (Homo sapiens) (Q8TB72 whole entry): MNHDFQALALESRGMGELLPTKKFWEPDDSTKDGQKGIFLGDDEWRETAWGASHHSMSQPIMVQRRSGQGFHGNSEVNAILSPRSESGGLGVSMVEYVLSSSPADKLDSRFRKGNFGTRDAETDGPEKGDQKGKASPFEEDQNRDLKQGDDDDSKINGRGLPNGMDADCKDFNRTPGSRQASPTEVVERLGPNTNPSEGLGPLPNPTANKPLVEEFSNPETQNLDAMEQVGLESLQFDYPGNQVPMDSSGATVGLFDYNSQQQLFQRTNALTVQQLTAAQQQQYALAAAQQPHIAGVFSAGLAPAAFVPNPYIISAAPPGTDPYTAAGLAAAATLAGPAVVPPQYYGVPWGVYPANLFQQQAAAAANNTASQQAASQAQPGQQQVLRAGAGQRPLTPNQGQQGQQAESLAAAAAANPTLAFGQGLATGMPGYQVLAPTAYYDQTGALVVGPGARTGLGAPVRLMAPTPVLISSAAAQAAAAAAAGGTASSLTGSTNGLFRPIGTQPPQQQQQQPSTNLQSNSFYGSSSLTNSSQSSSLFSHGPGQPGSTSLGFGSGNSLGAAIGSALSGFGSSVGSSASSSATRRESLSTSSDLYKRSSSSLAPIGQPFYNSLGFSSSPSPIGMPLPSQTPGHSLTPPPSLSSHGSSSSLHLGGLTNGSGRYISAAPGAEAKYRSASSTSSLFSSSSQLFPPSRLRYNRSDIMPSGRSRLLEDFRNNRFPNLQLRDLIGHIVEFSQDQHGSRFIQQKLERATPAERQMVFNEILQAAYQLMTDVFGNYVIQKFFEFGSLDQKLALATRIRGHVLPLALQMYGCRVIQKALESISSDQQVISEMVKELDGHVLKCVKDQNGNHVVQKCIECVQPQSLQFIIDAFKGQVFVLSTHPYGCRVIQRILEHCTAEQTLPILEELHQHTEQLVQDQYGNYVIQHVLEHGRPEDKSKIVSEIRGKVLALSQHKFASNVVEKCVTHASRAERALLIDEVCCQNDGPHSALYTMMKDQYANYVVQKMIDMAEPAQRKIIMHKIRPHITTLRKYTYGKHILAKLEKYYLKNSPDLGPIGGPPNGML
# Chain of STE20-related kinase adapter protein alpha (Homo sapiens) (Q7RTN6 whole entry): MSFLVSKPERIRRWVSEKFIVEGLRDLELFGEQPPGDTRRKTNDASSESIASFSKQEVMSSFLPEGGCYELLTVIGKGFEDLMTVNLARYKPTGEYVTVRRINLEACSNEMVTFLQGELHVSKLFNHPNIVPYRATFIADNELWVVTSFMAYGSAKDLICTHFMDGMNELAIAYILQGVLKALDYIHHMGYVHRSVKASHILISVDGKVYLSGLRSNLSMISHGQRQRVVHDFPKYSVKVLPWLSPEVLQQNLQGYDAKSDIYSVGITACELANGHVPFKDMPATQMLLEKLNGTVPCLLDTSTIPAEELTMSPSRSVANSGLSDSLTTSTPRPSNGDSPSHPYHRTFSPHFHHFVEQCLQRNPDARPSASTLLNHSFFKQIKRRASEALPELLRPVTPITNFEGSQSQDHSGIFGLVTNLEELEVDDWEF
# Chain of Parathymosin (Homo sapiens) (P20962 whole entry): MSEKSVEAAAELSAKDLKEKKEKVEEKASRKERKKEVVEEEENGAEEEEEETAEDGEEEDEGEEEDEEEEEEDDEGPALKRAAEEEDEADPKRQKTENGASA
# Chain of Lanosterol synthase (Homo sapiens) (P48449 whole entry): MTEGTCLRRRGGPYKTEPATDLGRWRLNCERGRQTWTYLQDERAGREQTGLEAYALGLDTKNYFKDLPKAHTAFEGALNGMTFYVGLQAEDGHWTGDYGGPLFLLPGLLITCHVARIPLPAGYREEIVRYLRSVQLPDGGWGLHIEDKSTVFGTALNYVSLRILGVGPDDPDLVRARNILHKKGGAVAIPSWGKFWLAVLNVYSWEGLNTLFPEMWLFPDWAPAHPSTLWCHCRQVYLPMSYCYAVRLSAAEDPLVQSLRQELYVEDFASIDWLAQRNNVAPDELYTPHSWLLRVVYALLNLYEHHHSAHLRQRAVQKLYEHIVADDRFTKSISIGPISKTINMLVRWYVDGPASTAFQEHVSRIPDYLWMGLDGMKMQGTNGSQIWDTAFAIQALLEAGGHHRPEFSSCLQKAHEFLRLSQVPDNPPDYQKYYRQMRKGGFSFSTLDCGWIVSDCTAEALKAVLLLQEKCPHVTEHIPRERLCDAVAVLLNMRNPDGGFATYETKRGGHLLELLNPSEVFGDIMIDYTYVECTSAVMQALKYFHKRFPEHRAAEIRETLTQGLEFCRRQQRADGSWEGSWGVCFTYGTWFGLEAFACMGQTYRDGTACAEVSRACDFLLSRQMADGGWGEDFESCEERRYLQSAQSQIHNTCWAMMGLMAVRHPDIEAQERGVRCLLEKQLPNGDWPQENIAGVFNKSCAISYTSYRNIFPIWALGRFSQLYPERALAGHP
# Chain of BAG family molecular chaperone regulator 2 (Homo sapiens) (O95816 whole entry): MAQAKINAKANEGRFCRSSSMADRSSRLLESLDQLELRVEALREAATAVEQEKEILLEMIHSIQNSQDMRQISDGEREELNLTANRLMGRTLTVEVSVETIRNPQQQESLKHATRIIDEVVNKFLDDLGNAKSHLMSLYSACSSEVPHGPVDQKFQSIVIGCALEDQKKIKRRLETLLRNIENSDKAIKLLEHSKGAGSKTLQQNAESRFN
# Chain of Probable helicase with zinc finger domain (Homo sapiens) (P42694 whole entry, the tested form may be a part): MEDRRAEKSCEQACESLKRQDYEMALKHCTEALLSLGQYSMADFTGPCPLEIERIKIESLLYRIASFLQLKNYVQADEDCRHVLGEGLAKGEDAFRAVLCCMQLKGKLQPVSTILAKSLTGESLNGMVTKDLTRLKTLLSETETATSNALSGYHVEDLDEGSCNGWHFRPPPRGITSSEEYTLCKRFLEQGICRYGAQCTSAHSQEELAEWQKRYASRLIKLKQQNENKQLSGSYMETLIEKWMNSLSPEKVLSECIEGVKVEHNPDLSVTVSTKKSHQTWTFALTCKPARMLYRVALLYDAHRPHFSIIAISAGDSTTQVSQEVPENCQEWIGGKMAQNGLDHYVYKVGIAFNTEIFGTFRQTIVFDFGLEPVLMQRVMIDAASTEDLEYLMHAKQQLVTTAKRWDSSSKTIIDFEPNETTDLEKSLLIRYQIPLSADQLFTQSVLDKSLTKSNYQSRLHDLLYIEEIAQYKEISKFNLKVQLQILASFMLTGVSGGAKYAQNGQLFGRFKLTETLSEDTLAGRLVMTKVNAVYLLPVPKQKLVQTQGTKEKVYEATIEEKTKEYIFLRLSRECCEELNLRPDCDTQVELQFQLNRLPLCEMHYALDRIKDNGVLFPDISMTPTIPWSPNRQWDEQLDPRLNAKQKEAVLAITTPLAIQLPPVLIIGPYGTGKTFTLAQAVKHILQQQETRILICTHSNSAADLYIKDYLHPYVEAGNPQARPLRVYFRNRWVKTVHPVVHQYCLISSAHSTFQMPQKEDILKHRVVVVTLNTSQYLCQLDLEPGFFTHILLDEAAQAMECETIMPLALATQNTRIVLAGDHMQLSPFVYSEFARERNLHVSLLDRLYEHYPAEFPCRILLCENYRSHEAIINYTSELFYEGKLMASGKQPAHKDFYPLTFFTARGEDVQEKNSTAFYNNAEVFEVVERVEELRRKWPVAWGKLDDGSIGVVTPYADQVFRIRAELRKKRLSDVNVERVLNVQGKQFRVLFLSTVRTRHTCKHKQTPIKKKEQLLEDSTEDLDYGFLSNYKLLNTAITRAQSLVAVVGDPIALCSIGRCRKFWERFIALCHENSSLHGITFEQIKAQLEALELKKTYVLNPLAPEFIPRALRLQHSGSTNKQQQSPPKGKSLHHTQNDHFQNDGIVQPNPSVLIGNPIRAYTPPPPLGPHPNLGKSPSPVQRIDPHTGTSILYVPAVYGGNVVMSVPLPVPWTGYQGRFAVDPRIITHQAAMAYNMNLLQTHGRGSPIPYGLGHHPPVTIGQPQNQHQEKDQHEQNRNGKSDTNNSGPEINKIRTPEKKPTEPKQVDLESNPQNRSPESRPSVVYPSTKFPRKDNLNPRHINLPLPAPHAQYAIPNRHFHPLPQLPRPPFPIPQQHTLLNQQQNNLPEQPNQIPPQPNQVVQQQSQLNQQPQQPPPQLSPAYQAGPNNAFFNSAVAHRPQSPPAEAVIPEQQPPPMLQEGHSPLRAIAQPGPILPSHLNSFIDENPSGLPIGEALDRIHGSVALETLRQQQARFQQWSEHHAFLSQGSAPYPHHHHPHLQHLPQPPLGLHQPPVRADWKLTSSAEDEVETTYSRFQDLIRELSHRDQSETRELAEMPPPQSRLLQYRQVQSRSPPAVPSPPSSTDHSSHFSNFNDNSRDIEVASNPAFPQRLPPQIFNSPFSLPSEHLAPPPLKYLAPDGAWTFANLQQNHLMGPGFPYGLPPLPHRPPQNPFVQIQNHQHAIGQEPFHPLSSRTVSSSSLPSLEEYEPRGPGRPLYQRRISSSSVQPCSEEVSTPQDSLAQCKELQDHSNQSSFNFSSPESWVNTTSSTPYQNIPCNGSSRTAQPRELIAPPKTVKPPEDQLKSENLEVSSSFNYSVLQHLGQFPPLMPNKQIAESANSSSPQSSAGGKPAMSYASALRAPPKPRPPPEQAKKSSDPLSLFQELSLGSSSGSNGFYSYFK
# Chain of Microfibrillar-associated protein 1 (Homo sapiens) (P55081 whole entry): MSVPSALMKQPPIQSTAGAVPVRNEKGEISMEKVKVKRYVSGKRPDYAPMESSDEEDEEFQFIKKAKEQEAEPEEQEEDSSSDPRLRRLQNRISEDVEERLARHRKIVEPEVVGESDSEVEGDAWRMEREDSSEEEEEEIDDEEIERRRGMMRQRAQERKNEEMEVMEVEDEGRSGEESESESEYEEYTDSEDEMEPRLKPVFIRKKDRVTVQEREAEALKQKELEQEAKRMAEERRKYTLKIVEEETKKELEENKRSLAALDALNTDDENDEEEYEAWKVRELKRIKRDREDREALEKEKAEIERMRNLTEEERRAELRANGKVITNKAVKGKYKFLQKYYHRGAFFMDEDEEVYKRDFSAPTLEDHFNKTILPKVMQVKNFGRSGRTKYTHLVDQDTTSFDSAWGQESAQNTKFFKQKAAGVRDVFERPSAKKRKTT
# Chain of c-Myc-binding protein (Homo sapiens) (Q99417 whole entry): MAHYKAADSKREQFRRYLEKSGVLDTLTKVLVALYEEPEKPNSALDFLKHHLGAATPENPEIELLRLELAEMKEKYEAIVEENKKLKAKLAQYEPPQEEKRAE
structure (smiles),measurement,setting,value
Cc1ccc(C(=O)Nc2cccc(C(F)(F)F)c2)cc1Nc1nc(-c2cccnc2)nc2c1cnn2C,ED50,[1],1150 µM
same,ED50,[2],249 µM
same,ED50,[3],0.0776 µM
same,ED50,[4],0.0118 µM
same,ED50,[5],0.0115 µM
same,ED50,[6],22.9 µM
same,ED50,[7],0.0198 µM
same,ED50,[8],9.58 µM
same,ED50,[9],15.4 µM
same,ED50,[10],2.93 µM
same,ED50,[11],8.64 µM
same,ED50,[12],0.169 µM
same,ED50,[13],1090 µM
same,ED50,[14],0.526 µM
same,ED50,[15],12.6 µM
same,ED50,[16],0.00939 µM
same,ED50,[17],1.96 µM
same,ED50,[18],0.675 µM
same,ED50,[19],0.626 µM
same,ED50,[20],0.657 µM
same,ED50,[21],112 µM
same,ED50,[22],0.092 µM
same,ED50,[23],55.2 µM
same,ED50,[24],3.24 µM
same,ED50,[25],0.00229 µM
same,ED50,[26],0.0188 µM
same,ED50,[27],0.00451 µM
same,ED50,[28],5470 µM
same,ED50,[29],0.0124 µM
same,ED50,[30],91.4 µM
same,ED50,[31],0.0394 µM
same,ED50,[32],0.0229 µM
same,ED50,[33],0.00691 µM
same,ED50,[34],0.00604 µM
Cc1ccc(C(=O)Nc2cccc(C(F)(F)F)c2)cc1Nc1nc(-c2cccnc2)nc2nn(C)cc12,ED50,[35],0.686 µM
same,ED50,[36],149 µM
same,ED50,[37],1.69 µM
same,ED50,[38],0.0807 µM
same,ED50,[39],0.00931 µM
same,ED50,[40],0.00599 µM
same,ED50,[41],0.0504 µM
same,ED50,[42],0.0871 µM
same,ED50,[43],1.93 µM
same,ED50,[44],0.0495 µM
same,ED50,[45],0.0084 µM
same,ED50,[46],0.136 µM
